In article PMC11189555, “Aryl amino acetamides prevent Plasmodium falciparum ring development via targeting the lipid-transfer protein PfSTART1” (Nature Communications, 2024):
Where “and” joins values, the source holds several entries; their conditions need not be identical. Equal values may be shown once.

Assays:
Format in all cases: cell-based, Plasmodium falciparum
[1] = test system: male gametes from mature stage V gametocytes; test: Dual gamete formation assay: male gamete formation (exflagellation); settings: for inhibition of male gamete formation: 1 µM, 48 h treatment of mature gametocytes; for Dual Gamete Formation Assay: Male at 1 µM, Mean: mean of 4 plates
Protocol: The compounds were tested in the P. falciparum Dual Gamete Formation Assay (PfDGFA)[84], fully described in the Supplementary Information. […]
Dual gamete formation assays. The compounds were tested in the P. falciparum Dual Gamete Formation Assay (PfDGFA) 13. Briefly, mature stage V gametocytes were exposed to compounds for 48 h at 37°C in 384 well plates in gametocyte culture medium (RPMI 1640 supplemented with 25 mM HEPES, 50 μg/mL hypoxanthine, 4.8 g/L NaHCO3, 2 mM L-glutamine, 5% pooled type AB serum, 0.5% Albumax II (Gibco)) under a 1% O2, 3% CO2, 96% N2 environment. Gametogenesis was then triggered by the addition of 10 μL ookinete medium (gametocyte culture medium supplemented with 100 μM xanthurenic acid and 0.27 µg/mL Cy3-labelled anti-Pfs25 antibody) to each well at room temperature. Plates were then cooled on a metal block at 4°C for four min to ensure even cooling and then stabilised for a further 4 min at 28°C. At 20 min post-induction, male gametogenesis was recorded in each well by automated brightfield microscopy using a x4 objective lens and 1.5x magnifier (x6 effective magnification). Afterward, plates were incubated in the dark at room temperature for 24 h and then female gametogenesis recorded in each well by automated fluorescence microscopy (anti-Pfs25-positive cells). All experiments were performed in quadruplicate with DMSO and cabamiquine (DDD107498)17 as negative and positive controls respectively. All data was evaluated in comparison to the positive and negative controls to calculate percentage inhibition of male and female gametocytes, and dose response analysis and IC50 calculation performed using GraphPad Prism. […]

ring-stage 3D7 parasites = test: Stage arrest and recovery assay (SYBR Green flow cytometry, Giemsa smears); settings: for growth after washout of compound: 48 h treatment, then washout, 6 days post washout (T = 192 h); for ring morphology after 48 h / schizont development at 36 h / impact on already-developed rings or trophozoites: M-833 2 µM, W-991 60 nM from ring stage; for impact on already-developed rings or trophozoites: one cycle; for Parasitemia derived from flow cytometry: replicates 1 and 2
Protocol: Parasites were synchronised using a Percoll density gradient (Cytiva) combined with 5% sorbitol lysis. Ring-stage parasites at 0-4 hours post-invasion at 2% parasitemia and haematocrit were then added to 2 µM M-833, 60 nM W-991 or 0.02% DMSO and incubated at 37 °C with compound replenished every 24 h. After 48 h, samples of M-833 and W-991-treated parasites were washed x 3 in complete RPMI to remove the compound and put back into culture for the remainder of the experiment. For the following two cycles of growth, samples were taken every 24 h to monitor recovery. Upon completion of time points, fixed cells were stained with 2.5 x SYBR Green (Invitrogen) in PBS, washed once in PBS, and analysed on the Attune Flow Cytometer (ThermoFisher Scientific). Giemsa-stained blood smears were visualised and imaged using a Nikon Eclipse E600 microscope.

[2] = test system: M-833 resistant parasite populations (PopC, PopD, PopE); test: Growth inhibition of M-833 resistant populations (LDH)
Protocol: After three cycles of drug treatment, three parasite populations were identified as less susceptible to the compound and their growth in serially diluted M-833 after 72 h was measured by lactate dehydrogenase (LDH) activity assays. […] The two most resistant populations (PopD and PopE) were further cloned out by limiting dilution. […] To identify the target of M-833, genomic DNA was extracted from the clonal lines of PopD and PopE and subjected to whole genome sequencing using MinION technology and compared to clonal 3D7 parental parasites. This identified 14 non-synonymous single nucleotide polymorphisms (SNP) across nine different genes when compared to the 3D7 parental strain (Supplementary Data 1). The two genes that had SNPs present across all resistant clones were the P. falciparum liver stage antigen 1 gene (PF3D7_1036400) and P. falciparum stAR-related lipid transfer protein (PF3D7_0104200, PFA0210c; pfstart1). The former is not expressed in the blood stage[19]–[21] and comprises a large central repeat region which is problematic for variant calling. […] Collectively, all the identified mutations (N309K, I224F, N330K) were found within the central conserved START domain and predicted to face the lipid-binding pocket (Fig. 1C).
The drug was then removed, and parasites were allowed to recover. Another cycle of drug treatment (3 μM M-833) was then resumed. The resistant lines were cloned out by limiting dilution (diluting the culture into a 96-well plate to achieve an average of ~0.3 parasites per well), prior to growth inhibition assays and genomic DNA (gDNA) extraction (DNeasy Blood and Tissue kit (Qiagen)[18].
Parasite growth assays with inhibitory compounds were performed as per[11] and are fully described in the Supplementary Information. […]
and compound 4. Note that M-833 was first purchased from MolPort (MolPort -002-267-916) then made in-house at WEHI: the differences observed in EC50s across experiments are attributed to the different batches of M -833. For some experiments, 0, 0.25 or 2.5 mM of glucosamine (GlcN) was also added. Experiments were set up in technical duplicates or triplicates. Following a freeze -thaw cycle, lactate dehydrogenase (LDH) activity was assessed as an indicator of parasite growt h 5. 30 μL of parasite culture was incubated for 30 min in the dark with 75 μL Malstat mixture (0.1 M Tris pH 9.0, 20 g/L lactic acid, pH 7.5, 0.2% Triton-X100, 0.5 g/L acetylpyridine adenine dinucleotide (APAD, Sigma), 200 μg/mL nitroblue tetrazolium (NBT; Sigma), 1 μg/mL phenozine ethosulfate (PES; Sigma)). Absorbance was then measured at 650 nm, transformed using the formula below, plotted against the logarithm of the concentrations, and a non-linear regression (log(inhibitor) vs. response, variable slope) was calculated using GraphPad Prism to assess the half-inhibitory […]
Growth inhibition % = (1 − average(sample)− average(uRBC)) ∗ 100 […]
The DMSO samples were also used to assess growth of parasite in the presence of 0.25 and 2.5 mM GlcN (normalised by DMSO in 0 mM GlcN). […]

Cc1cc(Cl)c(S(=O)(=O)N2CCCC2)cc1OCC(=O)NC1CCCCC1 [M-833]
inhibition of male gamete formation [1]: no inhibition
Dual Gamete Formation Assay: Male at 1 µM, Mean [1]: 0.872
growth after washout of compound (ring-stage 3D7 parasites): able to resume normal growth
ring morphology after 48 h (ring-stage 3D7 parasites): presence of dysmorphic rings
schizont development at 36 h (ring-stage 3D7 parasites): slight developmental delay of schizonts
impact on already-developed rings or trophozoites (ring-stage 3D7 parasites): did not indicate any impact
Parasitemia derived from flow cytometry (ring-stage 3D7 parasites; timepoint 0, no washout): 2.571 and 1.962
Parasitemia derived from flow cytometry (ring-stage 3D7 parasites; timepoint 0, washout): 1.962 and 2.571
Parasitemia derived from flow cytometry (ring-stage 3D7 parasites; timepoint 48, no washout): 11.6017 and 7.415
Parasitemia derived from flow cytometry (ring-stage 3D7 parasites; timepoint 48, washout): 7.415 and 11.6017
Parasitemia derived from flow cytometry (ring-stage 3D7 parasites; timepoint 96, no washout): 6.175 and 3.315
Parasitemia derived from flow cytometry (ring-stage 3D7 parasites; timepoint 96, washout): 2.881 and 5.202
Parasitemia derived from flow cytometry (ring-stage 3D7 parasites; timepoint 144, no washout): 3.175 and 1.778
Parasitemia derived from flow cytometry (ring-stage 3D7 parasites; timepoint 144, washout): 2.202 and 4.604
Parasitemia derived from flow cytometry (ring-stage 3D7 parasites; timepoint 192, no washout): 2.332 and 1.369
Parasitemia derived from flow cytometry (ring-stage 3D7 parasites; timepoint 192, washout): 3.268 and 8.096
Parasitemia derived from flow cytometry (ring-stage 3D7 parasites; timepoint 240, no washout): 2.528 and 1.343
Parasitemia derived from flow cytometry (ring-stage 3D7 parasites; timepoint 240, washout): 6.874 and 13.4537
Growth (Abs) Normalised to DMSO ([2]; Population C, M-833 0.0390625 uM): 99.9117
Growth (Abs) Normalised to DMSO ([2]; Population C, M-833 0.078125 uM): 102.105
Growth (Abs) Normalised to DMSO ([2]; Population C, M-833 0.15625 uM): 99.9558
Growth (Abs) Normalised to DMSO ([2]; Population C, M-833 0.3125 uM): 98.7636
Growth (Abs) Normalised to DMSO ([2]; Population C, M-833 0.625 uM): 92.6626
Growth (Abs) Normalised to DMSO ([2]; Population C, M-833 1.25 uM): 74.9632
Growth (Abs) Normalised to DMSO ([2]; Population C, M-833 2.5 uM): 42.7878
Growth (Abs) Normalised to DMSO ([2]; Population C, M-833 5 uM): 8.5443
Growth (Abs) Normalised to DMSO ([2]; Population C, M-833 10 uM): 1.435
Growth (Abs) Normalised to DMSO ([2]; Population D, M-833 0.0390625 uM): 100.282
Growth (Abs) Normalised to DMSO ([2]; Population D, M-833 0.078125 uM): 101.574
Growth (Abs) Normalised to DMSO ([2]; Population D, M-833 0.15625 uM): 100.622
Growth (Abs) Normalised to DMSO ([2]; Population D, M-833 0.3125 uM): 100.758
Growth (Abs) Normalised to DMSO ([2]; Population D, M-833 0.625 uM): 96.1318
Growth (Abs) Normalised to DMSO ([2]; Population D, M-833 1.25 uM): 94.9752
Growth (Abs) Normalised to DMSO ([2]; Population D, M-833 2.5 uM): 84.3814
Growth (Abs) Normalised to DMSO ([2]; Population D, M-833 5 uM): 63.806
Growth (Abs) Normalised to DMSO ([2]; Population D, M-833 10 uM): 31.8884
Growth (Abs) Normalised to DMSO ([2]; Population E, M-833 0.0390625 uM): 101.958
Growth (Abs) Normalised to DMSO ([2]; Population E, M-833 0.078125 uM): 104.075
Growth (Abs) Normalised to DMSO ([2]; Population E, M-833 0.15625 uM): 104.451
Growth (Abs) Normalised to DMSO ([2]; Population E, M-833 0.3125 uM): 103.313
Growth (Abs) Normalised to DMSO ([2]; Population E, M-833 0.625 uM): 104.846
Growth (Abs) Normalised to DMSO ([2]; Population E, M-833 1.25 uM): 106.755
Growth (Abs) Normalised to DMSO ([2]; Population E, M-833 2.5 uM): 98.4077
Growth (Abs) Normalised to DMSO ([2]; Population E, M-833 5 uM): 90.3966
Growth (Abs) Normalised to DMSO ([2]; Population E, M-833 10 uM): 68.0744
increase in EC50 compared to 3D7 parasites ([2]; cloned PopD and PopE lines, Fig 1B): 17 fold

CC(C)(Nc1ccc(Cl)c(S(=O)(=O)N2CCOCC2)c1)C(=O)Nc1ccc(F)c(Cl)c1 [W-991]
inhibition of male gamete formation [1]: no inhibition
Dual Gamete Formation Assay: Male at 1 µM, Mean [1]: -1.328
growth after washout of compound (ring-stage 3D7 parasites): able to resume normal growth
reduction in parasitemia vs DMSO (Giemsa-stained smears) (ring-stage 3D7 parasites; 60 h time point): 1.3 fold
ring morphology after 48 h (ring-stage 3D7 parasites): presence of dysmorphic rings
schizont development at 36 h (ring-stage 3D7 parasites): slight developmental delay of schizonts
impact on already-developed rings or trophozoites (ring-stage 3D7 parasites): did not indicate any impact
Parasitemia derived from flow cytometry (ring-stage 3D7 parasites; timepoint 0, no washout): 2.571 and 1.962
Parasitemia derived from flow cytometry (ring-stage 3D7 parasites; timepoint 0, washout): 2.571 and 1.962
Parasitemia derived from flow cytometry (ring-stage 3D7 parasites; timepoint 48, no washout): 11.0007 and 8.084
Parasitemia derived from flow cytometry (ring-stage 3D7 parasites; timepoint 48, washout): 11.0007 and 8.084
Parasitemia derived from flow cytometry (ring-stage 3D7 parasites; timepoint 96, no washout): 5.782 and 3.338
Parasitemia derived from flow cytometry (ring-stage 3D7 parasites; timepoint 96, washout): 5.455 and 2.599
Parasitemia derived from flow cytometry (ring-stage 3D7 parasites; timepoint 144, no washout): 3.388 and 1.894
Parasitemia derived from flow cytometry (ring-stage 3D7 parasites; timepoint 144, washout): 3.848 and 1.766
Parasitemia derived from flow cytometry (ring-stage 3D7 parasites; timepoint 192, no washout): 2.379 and 1.388
Parasitemia derived from flow cytometry (ring-stage 3D7 parasites; timepoint 192, washout): 4.263 and 2.036
Parasitemia derived from flow cytometry (ring-stage 3D7 parasites; timepoint 240, no washout): 2.587 and 1.356
Parasitemia derived from flow cytometry (ring-stage 3D7 parasites; timepoint 240, washout): 6.983 and 2.934

O=C(CNc1ccc(Cl)c(S(=O)(=O)N2CCOCC2)c1)Nc1ccc(F)c(Cl)c1 [compound 2, reference compound]
activity against M-833-resistant populations ([2]; Fig 4B): cross-resistant
